Drawing on ChEMBL document CHEMBL3352106, “Phosphocalyculin C as a pyrophosphate protoxin of calyculin C in the marine sponge Discodermia calyx” (Bioorg Med Chem Lett, 2014), this text covers IC50 for 2 compounds.

This assay deals with P388. Kind of assay: Cytotoxicity against mouse P388 cells assessed as reduction in cell viability. The format is functional, cell-based.

Usually IC50 stands for the point on the concentration scale where inhibition reaches its midpoint. `COC[C@@H]([C@H](O)[C@H](O)C(=O)N[C@H](C)C[C@H](C)c1nc(/C=C/C[C@@H]2O[C@]3(C[C@@H](O)[C@@H]2C)O[C@H]([C@H](C[C@H](O)[C@H](C)[C@H](O)[C@H](C)/C=C(C)/C(C)=C/C=C/C(C)=C\C#N)OC)[C@H](OP(=O)(O)O)C3(C)C)co1)N(C)C` [CALYCULIN]: the IC50 was found to be 0.007 nM.

Take `COC[C@@H]([C@H](O)[C@H](O)C(=O)N[C@H](C)C[C@H](C)c1nc(/C=C/C[C@@H]2O[C@]3(C[C@@H](O)[C@@H]2C)O[C@H]([C@H](C[C@H](O)[C@H](C)[C@H](O)[C@H](C)/C=C(C)/C(C)=C/C=C/C(C)=C\C#N)OC)[C@H](OP(=O)(O)OP(=O)(O)O)C3(C)C)co1)N(C)C`: the IC50 is 36 nM.
